Results on ten compounds are retold here after ChEMBL document CHEMBL2046282, “Structure-based optimization of aminopyridines as PKCθ inhibitors” (Bioorg Med Chem Lett, 2012).

Data set [1] in a line: Permeability from apical to basolateral side of human Caco2 cells. The data set is classed as ADME, cell-based. The settings on record: Caco-2, read-out: permeability.
Data set [2] can be described thus: Permeability from basolateral to apical side of human Caco2 cells. The class given is ADME, cell-based. The conditions noted are these: Caco-2, read-out: permeability.
Data set [3] has as its target Protein kinase C alpha type (Homo sapiens, UniProt P17252). In words: Inhibition of PKCalpha.
Data set [4] addresses Protein kinase C delta type (Homo sapiens, UniProt Q05655). Put plainly: Inhibition of PKCdelta.
Data set [5] can be described thus: Selectivity ratio of Ki for GSK3beta to Ki for PKCtheta.
Data set [6] is described as follows: Selectivity ratio of Ki for Src to Ki for PKCtheta.
Data set [7] has as its target T1, Protein kinase C theta type (Homo sapiens, UniProt Q04759). In words: Inhibition of PKCtheta.
Data set [8] is described as follows: Selectivity ratio of Ki for PKA to Ki for PKCtheta.
Data set [9] addresses T1, Protein kinase C theta type. Put plainly: Inhibition of PKCtheta-mediated IL-2 production by cell based assay.
Data set [10] addresses Mitogen-activated protein kinase 10 (Homo sapiens, UniProt P53779). In words: Inhibition of JNK3.
Data set [11] is described as follows: Mean residence time in mouse at 3 mg/kg, iv and 10 mg/kg, po. The data set is classed as ADME, organism-based. The conditions noted are these: in vivo.
Another data set concerns Plasma. In words: fCmax in Staphlyococcal enterotoxin B challenged Balb/c mouse plasma at 100 mg/kg, po after 2 hrs. The conditions noted are these: in vivo. The data set is classed as ADME, organism-based. Also noted: dose 100 mg/kg, route oral.
In data set [12] the target is Tyrosine-protein kinase ITK/TSK (Homo sapiens, UniProt Q08881). Put plainly: Inhibition of ITK.
Data set [13] deals with Tyrosine-protein kinase Fyn (Homo sapiens, UniProt P06241). In words: Inhibition of FYN.
Tyrosine-protein kinase Fyn, sequence (P06241 whole entry): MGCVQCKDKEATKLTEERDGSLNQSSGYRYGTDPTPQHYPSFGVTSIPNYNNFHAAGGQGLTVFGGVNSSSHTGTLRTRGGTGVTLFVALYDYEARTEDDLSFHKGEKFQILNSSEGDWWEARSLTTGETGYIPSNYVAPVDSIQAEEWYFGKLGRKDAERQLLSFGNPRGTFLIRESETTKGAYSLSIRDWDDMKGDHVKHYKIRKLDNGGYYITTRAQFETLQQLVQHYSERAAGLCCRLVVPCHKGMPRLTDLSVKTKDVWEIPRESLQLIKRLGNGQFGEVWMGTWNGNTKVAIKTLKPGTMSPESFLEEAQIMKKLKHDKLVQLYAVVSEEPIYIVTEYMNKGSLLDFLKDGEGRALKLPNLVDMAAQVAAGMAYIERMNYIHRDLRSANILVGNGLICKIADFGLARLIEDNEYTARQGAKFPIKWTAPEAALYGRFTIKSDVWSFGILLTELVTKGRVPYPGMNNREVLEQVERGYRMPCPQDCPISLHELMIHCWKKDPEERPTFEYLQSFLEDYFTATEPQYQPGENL
The target in data set [14] is Protein kinase C beta type (Homo sapiens, UniProt P05771). Put plainly: Inhibition of PKCbeta.
Data set [15] has as its target Vascular endothelial growth factor receptor 2 (Homo sapiens, UniProt P35968). Put plainly: Inhibition of KDR.
Data set [16] is described as follows: Oral bioavailability in mouse at 10 mg/kg. The class given is ADME, organism-based. The settings on record: in vivo.
Data set [17] addresses Protein kinase C epsilon type (Homo sapiens, UniProt Q02156). Put plainly: Inhibition of PKCepsilon.
The target in data set [18] is Tyrosine-protein kinase Lck (Homo sapiens, UniProt P06239). In words: Inhibition of LCK.
The target in data set [19] is Phosphatidylinositol 4,5-bisphosphate 3-kinase catalytic subunit gamma isoform (Homo sapiens, UniProt P48736). Put plainly: Inhibition of PI3Kgamma.
The target in data set [20] is Tyrosine-protein kinase Lyn (Homo sapiens, UniProt P07948). Put plainly: Inhibition of LYN.
Tyrosine-protein kinase Lyn, sequence (P07948 whole entry): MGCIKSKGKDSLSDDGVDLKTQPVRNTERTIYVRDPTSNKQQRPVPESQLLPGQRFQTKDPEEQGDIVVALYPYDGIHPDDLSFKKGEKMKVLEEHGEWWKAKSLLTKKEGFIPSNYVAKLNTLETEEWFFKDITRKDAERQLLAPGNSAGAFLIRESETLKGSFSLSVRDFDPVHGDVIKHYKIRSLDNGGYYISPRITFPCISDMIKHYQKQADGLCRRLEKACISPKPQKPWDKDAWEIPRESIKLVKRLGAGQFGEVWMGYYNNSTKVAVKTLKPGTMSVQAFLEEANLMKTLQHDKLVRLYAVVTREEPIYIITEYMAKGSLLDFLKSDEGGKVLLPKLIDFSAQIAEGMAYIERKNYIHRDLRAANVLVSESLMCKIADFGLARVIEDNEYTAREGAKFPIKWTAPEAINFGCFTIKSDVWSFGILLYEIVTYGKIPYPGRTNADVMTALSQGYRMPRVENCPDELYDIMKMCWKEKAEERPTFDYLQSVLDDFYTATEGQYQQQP
In data set [21] the target is Cyclin-dependent kinase 2 (Homo sapiens, UniProt P24941). Put plainly: Inhibition of CDK2.
In data set [22] the target is Tyrosine-protein kinase JAK2 (Homo sapiens, UniProt O60674). Put plainly: Inhibition of JAK2.
For data set [23], the target named is Rho-associated protein kinase 1 (Homo sapiens, UniProt Q13464). In words: Inhibition of ROCK1.
Rho-associated protein kinase 1, sequence (Q13464 whole entry, canonical isoform): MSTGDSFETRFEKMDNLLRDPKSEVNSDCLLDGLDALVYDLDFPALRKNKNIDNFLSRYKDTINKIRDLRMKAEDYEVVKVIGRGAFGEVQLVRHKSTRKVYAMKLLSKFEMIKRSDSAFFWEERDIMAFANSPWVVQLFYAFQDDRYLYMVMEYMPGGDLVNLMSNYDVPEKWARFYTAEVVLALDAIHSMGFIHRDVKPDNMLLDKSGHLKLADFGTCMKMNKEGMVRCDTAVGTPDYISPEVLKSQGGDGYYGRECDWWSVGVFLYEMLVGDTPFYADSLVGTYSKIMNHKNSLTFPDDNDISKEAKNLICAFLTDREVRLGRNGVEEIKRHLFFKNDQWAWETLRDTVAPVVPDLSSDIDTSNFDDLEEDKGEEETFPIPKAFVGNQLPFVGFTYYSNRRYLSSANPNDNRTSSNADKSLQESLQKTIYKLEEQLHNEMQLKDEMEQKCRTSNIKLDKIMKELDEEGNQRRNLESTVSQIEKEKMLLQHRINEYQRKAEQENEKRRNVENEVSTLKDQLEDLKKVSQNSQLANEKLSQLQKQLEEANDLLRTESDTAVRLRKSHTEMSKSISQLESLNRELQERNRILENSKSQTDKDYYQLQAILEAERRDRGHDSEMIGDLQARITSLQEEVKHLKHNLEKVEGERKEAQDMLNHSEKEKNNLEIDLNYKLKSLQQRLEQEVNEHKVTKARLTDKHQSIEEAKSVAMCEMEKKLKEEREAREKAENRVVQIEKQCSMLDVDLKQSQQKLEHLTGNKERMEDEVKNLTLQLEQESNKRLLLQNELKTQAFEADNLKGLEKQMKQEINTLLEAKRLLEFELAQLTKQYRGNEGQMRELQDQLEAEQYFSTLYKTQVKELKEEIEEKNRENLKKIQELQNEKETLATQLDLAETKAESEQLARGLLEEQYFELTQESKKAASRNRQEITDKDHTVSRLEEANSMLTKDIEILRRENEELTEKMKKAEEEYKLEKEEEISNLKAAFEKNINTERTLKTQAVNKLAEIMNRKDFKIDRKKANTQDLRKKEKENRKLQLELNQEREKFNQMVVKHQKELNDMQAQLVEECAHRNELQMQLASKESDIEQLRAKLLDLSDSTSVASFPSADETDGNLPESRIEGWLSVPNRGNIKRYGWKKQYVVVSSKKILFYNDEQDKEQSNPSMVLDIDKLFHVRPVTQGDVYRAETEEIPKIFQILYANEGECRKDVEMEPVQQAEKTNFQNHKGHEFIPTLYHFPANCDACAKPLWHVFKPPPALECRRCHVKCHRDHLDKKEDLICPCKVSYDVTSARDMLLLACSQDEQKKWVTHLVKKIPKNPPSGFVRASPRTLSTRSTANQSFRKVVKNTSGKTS
The target of data set [24] is Phosphatidylinositol 4,5-bisphosphate 3-kinase catalytic subunit alpha isoform (Homo sapiens, UniProt P42336). In words: Inhibition of PI3Kalpha.
Data set [25] has as its target Tyrosine-protein kinase ZAP-70 (Homo sapiens, UniProt P43403). Put plainly: Inhibition of ZAP70.
Data set [26] can be described thus: Half life in mouse at 3 mg/kg, iv and 10 mg/kg, po. The data set is classed as ADME, organism-based. The settings on record: in vivo.
For data set [27], the target named is Serine/threonine-protein kinase PLK1 (Homo sapiens, UniProt P53350). Put plainly: Inhibition of Plk.
The target in data set [28] is RAF proto-oncogene serine/threonine-protein kinase (Homo sapiens, UniProt P04049). In words: Inhibition of c-Raf.
In data set [29] the target is Mitogen-activated protein kinase 3 (Homo sapiens, UniProt P27361). Put plainly: Inhibition of ERK1.
Mitogen-activated protein kinase 3, sequence (P27361 whole entry): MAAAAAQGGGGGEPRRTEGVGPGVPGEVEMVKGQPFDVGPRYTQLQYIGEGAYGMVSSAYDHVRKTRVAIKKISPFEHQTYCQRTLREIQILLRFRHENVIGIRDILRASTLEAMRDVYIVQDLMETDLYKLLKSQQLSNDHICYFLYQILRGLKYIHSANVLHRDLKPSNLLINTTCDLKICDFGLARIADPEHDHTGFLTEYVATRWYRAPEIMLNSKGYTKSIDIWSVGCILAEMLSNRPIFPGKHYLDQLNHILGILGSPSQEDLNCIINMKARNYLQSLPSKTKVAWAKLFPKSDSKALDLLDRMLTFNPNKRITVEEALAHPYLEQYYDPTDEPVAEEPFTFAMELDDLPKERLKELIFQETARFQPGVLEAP
Data set [30] in a line: Volume of distribution at steady state in mouse at 3 mg/kg, iv and 10 mg/kg, po. The settings on record: in vivo, read-out: Vdss. The class given is ADME, organism-based.
Data set [31] is described as follows: Clearance in mouse at 3 mg/kg, iv and 10 mg/kg, po. The class given is ADME, organism-based. The conditions noted are these: in vivo.
Data set [32] in a line: Apparent volume of distribution in mouse at 3 mg/kg, iv and 10 mg/kg, po. The settings on record: in vivo, read-out: Vz. The class given is ADME, organism-based.
Data set [33] has as its target Receptor-type tyrosine-protein kinase FLT3 (Homo sapiens, UniProt P36888). In words: Inhibition of Flt3.

A value given as a limit tells only on which side of the number the result lay.

T1 sequence (Q04759 whole entry): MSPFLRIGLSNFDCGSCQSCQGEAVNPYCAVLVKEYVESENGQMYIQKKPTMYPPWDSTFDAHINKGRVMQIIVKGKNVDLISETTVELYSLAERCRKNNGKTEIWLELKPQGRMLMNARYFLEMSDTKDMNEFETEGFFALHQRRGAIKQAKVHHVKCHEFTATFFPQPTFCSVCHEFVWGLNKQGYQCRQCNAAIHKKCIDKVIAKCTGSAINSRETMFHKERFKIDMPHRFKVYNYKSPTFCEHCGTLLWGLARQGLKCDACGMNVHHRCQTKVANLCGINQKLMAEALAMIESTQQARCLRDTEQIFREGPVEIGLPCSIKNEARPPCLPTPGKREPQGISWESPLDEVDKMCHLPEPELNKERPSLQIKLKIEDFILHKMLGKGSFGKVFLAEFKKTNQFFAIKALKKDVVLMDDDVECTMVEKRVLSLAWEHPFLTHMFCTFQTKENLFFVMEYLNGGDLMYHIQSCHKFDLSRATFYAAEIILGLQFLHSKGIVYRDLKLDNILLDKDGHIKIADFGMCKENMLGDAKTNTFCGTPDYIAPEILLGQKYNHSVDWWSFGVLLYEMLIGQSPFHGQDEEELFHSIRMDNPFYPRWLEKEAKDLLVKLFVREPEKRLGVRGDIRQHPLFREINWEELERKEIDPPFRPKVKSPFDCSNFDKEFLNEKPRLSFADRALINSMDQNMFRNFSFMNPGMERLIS
Protein kinase C delta type, sequence (Q05655 whole entry): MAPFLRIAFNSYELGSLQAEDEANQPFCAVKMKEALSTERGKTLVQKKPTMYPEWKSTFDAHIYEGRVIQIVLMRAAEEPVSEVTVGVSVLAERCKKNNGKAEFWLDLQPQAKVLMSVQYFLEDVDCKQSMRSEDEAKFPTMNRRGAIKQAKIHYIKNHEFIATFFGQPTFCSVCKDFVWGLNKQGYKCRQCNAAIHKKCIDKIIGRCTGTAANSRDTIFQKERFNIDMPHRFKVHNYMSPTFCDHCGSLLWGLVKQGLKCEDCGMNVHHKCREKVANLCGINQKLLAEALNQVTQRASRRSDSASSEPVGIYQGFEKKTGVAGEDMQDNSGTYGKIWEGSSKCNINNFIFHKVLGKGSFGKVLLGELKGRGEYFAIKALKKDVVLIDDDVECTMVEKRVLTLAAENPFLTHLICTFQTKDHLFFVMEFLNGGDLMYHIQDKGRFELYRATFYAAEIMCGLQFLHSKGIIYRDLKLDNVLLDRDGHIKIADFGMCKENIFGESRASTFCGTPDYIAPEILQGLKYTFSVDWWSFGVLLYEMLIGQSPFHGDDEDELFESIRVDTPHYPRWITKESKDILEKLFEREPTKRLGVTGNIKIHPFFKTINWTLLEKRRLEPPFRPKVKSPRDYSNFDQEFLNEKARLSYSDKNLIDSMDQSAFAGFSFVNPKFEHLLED

Turning to `Nc1ncccc1C(=O)c1cccc(N2CCCNCC2)n1`, in data set [1], the Papp A→B came out at 9 ×10⁻⁶ cm/s. The Papp B→A in [2] is 11 ×10⁻⁶ cm/s.
As for `CC(C)C[C@H]1CN(c2ccc(C3CC3)c(C(=O)c3cccnc3N)n2)CCN1`, affinity in data set [3] was put at a Ki of 2650 nM.
For the compound `CC(C)C[C@H]1CN(c2ccc(Cl)c(C(=O)c3cccnc3N)n2)CCN1`, the Ki (in general, a measure of affinity in units of concentration, obtained from inhibition or displacement) amounted to 49 nM in data set [3], 22 nM in [4] and 2 nM in data set [7]. Also, the Ratio Ki in data set [5] is 255; in data set [6], above 4000; in [8], 38. For the same compound, in data set [9], the concentration for half-maximal inhibition (IC50) (in general, the concentration that inhibits the measured activity by half) was found to be 58 nM.
`CCCc1ccc(N2CCN[C@@H](CC(C)C)C2)nc1C(=O)c1cccnc1N` yielded an inhibitory constant (Ki) in data set [3] of 1230 nM.
Take `CC(C)C[C@H]1CN(c2cccc(C(=O)c3cccnc3N)n2)CCN1`: the Ki in data set [3] was found to be 54 nM; in [4], 20 nM; in [7] it was 3 nM. Further, the Ratio Ki was 143 in [5], above 1400 in data set [6] and 60 in data set [8]. In data set [9], this compound registered an IC50 of 165 nM.
`Cc1cc(C(=O)c2cccnc2N)nc(N2CCN[C@@H](CC(C)C)C2)c1`: in data set [3], the affinity corresponds to a Ki of 459 nM.
On the same count and under the same terms, the figure for `CC(C)C[C@H]1CN(c2ccc(Cc3ccccc3)c(C(=O)c3cccnc3N)n2)CCN1` is above 1250 nM.
For `CC(C)C[C@H]1CN(c2ccc(OC(F)F)c(C(=O)c3cccnc3N)n2)CCN1`, the figures for the Ki in data set [3], in [4] and in [7] were 459 nM, 87 nM and 7 nM, respectively. Also, the Ratio Ki in data set [5] was above 570; in [6], above 570; in [8], 84. Also, half-maximal inhibition in data set [9] (IC50) was put at 229 nM.
Turning to `CC(C)C[C@H]1CN(c2ccc(C(F)(F)F)c(C(=O)c3cccnc3N)n2)CCN1`, the Ki in data set [10] is above 4000 nM; in data set [14], 260 nM; in data set [15], above 4000 nM; in [3], 76 nM; in data set [4], 37 nM; in data set [17], 17 nM. Also, the Ki in data set [19] was above 4000 nM; in data set [21], above 4000 nM; in [22], above 4000 nM; in data set [23] it was above 4000 nM; in [24], above 4000 nM; in [7], 3 nM. Further, the Ki was above 4000 nM in data set [27] and 580 nM in [33]. Moreover, the MRT – broadly, the average time that molecules of a dose stay in the body – in data set [11] amounted to 1.4 h. This compound also registered a fCmax in the data set on Plasma of 150 nM. Also, the IC50 in data set [12], in data set [13], in data set [18], in data set [20], in data set [25] and in data set [28] was above 2000 nM in each case. For the same compound, the values for the IC50 in data set [29] and in data set [9] were above 2000 nM and 52 nM, respectively. For the same compound, in [16], the bioavailability (as a rule, dose-corrected exposure relative to a reference, in per cent) worked out at 45%. In addition, in [26], the half-life (in general, the time in which the quantity being followed falls by half) is 1.3 h. The figures for the Vd in [30] and in data set [32] were 15.8 L/kg and 19.7 L/kg, respectively. In addition, in data set [31], the clearance worked out at 203 mL/min/kg.
In data set [7], `Nc1ncccc1C(=O)c1cccc(N2CCC(N)C2)n1` (configuration not stated) returned a Ki of 1520 nM.
